# Assay results reported in patent US12076307B2, “Compositions for prevention or treatment of acute radiation syndrome and other radiation exposure” (priority 2017, dated 2024).
# Like-named read-outs stand apart in the source and are kept apart here.
# Columns and labels:
# [1] = tested on: Balb/c mice, whole body radiation 1 Gy; test: Blood immune cell counts (CBC) in radiation-induced leukopenia (RIL) ARS model; type: in vivo, mouse
# Source text: Balb/c mice (9-week-old male) were purchased from Koatech (Pyeongtaek, Republic of Korea) and maintained in a specific pathogen-free (SPF) environment to establish an animal model of acute radiation syndrome. In order to evaluate the effect of PLAG on the reduction of immune cells by radiation, the following three groups were constructed for this study. (1) normal control group (positive control); (2) Radiotherapy-Radiation induced leukopenia (RIL) group (negative control group); And (3) RIL+PLAG treated group (experimental group).
# Specifically, mice treated with RIL and […] were exposed to whole body radiation at 1 Gy (100 rad=1.06 min). For the RIL+PLAG treatment group, 50 mg/kg/day of PLAG (Enzychem Lifesciences Co., Daejeon, Republic of Korea) was orally administered daily for 4 consecutive days after irradiation. The normal controls were not exposed to radiation. On the 5th day after irradiation, blood samples were collected, and then Complete Blood Count (CBC) was measured using a Mindray BC-5300 auto hematology analyzer (Shenzhen Mindray Bio-medical Electronics, China) so that the number of blood leukocytes, neutrophils and lymphocytes in blood could be counted (FIG. 1).
# [2] = tested on: Balb/c mice, γ-Radiation TBI; test: Survival after total body irradiation 6.5-10 Gy (Example 4); type: in vivo, mouse; conditions: 250 mg/kg/day PO
# Source text: In order to evaluate effects of PLAG on survival rates of animal models exposed to radiation, the following test groups were constructed as shown in Table 3 and results are shown in FIG. 7B, and FIG. 8-12. As discussed in Examples above, the first group of untreated group (negative control) of ARS-induced mice after radiation was compared to the second group of treated group of ARS-induced mice with PLAG after radiation.
# [3] = tested on: Balb/c mice, TBI 6.5 or 8 Gy; test: Radiation-induced skin damage (erythema) in lethal ARS mouse models; type: in vivo
# Source text: In order to evaluate effects of PLAG on recovery skin damage of animal models exposed to radiation, the following test groups were constructed as shown in Table 4 and results are shown in FIGS. 13-15. As discussed in Examples above, the first group of untreate group (negative control) of mice after radiation was compared to the second group of treated group of mice with PLAG after radiation.
# In addition to the ARS survival studies that have been conducted in mice, a series of studies that probe secondary measures of efficacy in radiation-induced skin damage in the Balb/c mice (n=10/sex/group). […] The development of skin damage (erythema and reddening) on the tails were evaluated.
# In the following study, Balb/c mice (n=5 females/group) were exposed with a supra-lethal radiation dosage of 8 Gy and treated with EC-18 daily at 250 mg/kg/day for 17 days.
# The secondary measures of EC-18's efficacy on the supra-LD (8 Gy) of radiation-induced skin damage were assessed. Female BALB/c mice (9 weeks of age) were randomly divided into 2 cohorts and daily administered in-life with the vehicle control (PBS) and EC-18 at 250 mg/kg (n=5/each cohort).
# [4] = tested on: HaCaT (human keratinocyte) cells; test: Radiation-induced DAMP (HMGB1) release from HaCaT cells; type: cell-based; conditions: γ-irradiated HaCaT cells
# Description: The radiation-induced DAMP removal was evaluated in HaCaT (human keratinocyte) cells exposed with γ-radiation from a ^60Co radiation source (0.833 Gy/minute). As one type of DAMPs, high-mobility group box 1 (HMGB1) was used as a biomarker to establish the mitigating effect of EC-18 against radiation. HMGB1 proportionally secreted as the radiation dosage (5 to 10 Gy) and exposure time (24 to 48 hrs) increased (FIG. 33A).
# [5] = Safety assessment in clinical trials; type: in vivo, human
# Description: AEs that were observed involved mild symptoms unrelated to EC-18 administration. […] In the clinical studies with pancreatic cancer patients, there were no SAEs associated with EC-18 administered twice daily (BID) for a total of 1000 mg/day.
# [6] = In vitro plasma stability, human plasma; type: in vitro ADME; conditions: Humans; 1 μM; 37° C.; n=3
# Description: To assess the stability of EC-18 in plasma, the test material, or the standard reference material (test concentration 1 μM) was mixed with rat and human plasma and allowed to react for 1 hr at 37° C. Then, the residual EC-18 concentration was measured by LC-MS/MS. As standard reference materials, albendazole (a drug with high plasma stability) and vinpocetine (a drug with low plasma stability) were tested in parallel. When allowed to react with rat and human plasma for 1 hr, the residual EC-18 concentration in both rat and human plasma was >99% of the initial dose.
# CYP3A4 = conditions: for Enzyme Activity CYP3A4: n=3
# Description: This test was performed to determine if EC-18 was capable of inducing CYP1A2 and CYP3A4 activities in human primary hepatocytes.
# [7] = Pathway of excretion in rats after single oral [14C]EC-18; type: in vivo, rat; conditions: 50 mg/kg oral, 50 mg/kg
# Description: To assess the routes of EC-18 excretion, male rats were administered a single dose of [^14C]EC-18 (oral dose of 50 mg/kg), after which, radioactive concentrations were measured in urine, feces, and exhaled air in the chamber of the animals for 168 hrs, and in the body after the autopsy.
# SD rat = test: Immunotoxicity study; type: in vivo; conditions: Oral; 4 weeks; 0, 2000 mg/kg
# Source text: Various toxicology studies have been performed. All studies were GLP-compliant unless otherwise noted.
# [8] = RIL + PLAG 50 mg/kg/day oral 4 days, day 5, n=3
compound,measurement,setting,value
"CCCCC/C=C\C/C=C\CCCCCCCC(=O)OC(COC(C)=O)COC(=O)CCCCCCCCCCCCCCC (centres unmarked) [EC-18, 1-palmitoyl-2-linoleoyl-3-acetylglycerol]",increase of blood leukocyte count vs RIL group,"[1]; PLAG 50 mg/kg/day, day 5",63%
same,increase of blood lymphocyte count vs RIL group,"[1]; PLAG 50 mg/kg/day, day 5",85%
same,increase of blood neutrophil count vs RIL group,"[1]; PLAG 50 mg/kg/day, day 5",34%
same,Lymphocyte,[1]; [8],2.2±0.42 10^3/μL
same,Neutrophils,[1]; [8],1.17±0.35 10^3/μL
same,White blood cells,[1]; [8],3.56±0.84 10^3/μL
same,survival rate vs untreated mice,"[2]; 6.5 Gy TBI, BALB/c 9 weeks old",improved
same,survival rate vs untreated mice,"[2]; 6.5 Gy TBI, BALB/c 11 weeks old",improved
same,survival rate vs untreated mice,"[2]; 7 Gy TBI, 9 weeks old",improved until about day 15
same,survival rate vs untreated mice,"[2]; 8 Gy TBI, 9 weeks old",improved until about day 14
same,survival rate vs untreated mice,"[2]; 10 Gy TBI, 9 weeks old",improved until about day 9
same,skin damage (erythema and reddening) on the tails vs PBS,"[3]; 6.5 Gy, 250 mg/kg/day 30 days",substantial reduction of tail erythema
same,"skin damage (necrosis, ulceration, blistering, hair loss) on tails and feet vs PBS","[3]; 8 Gy, 250 mg/kg/day 17 days, n=5 females",extensively reduced
same,mice with any skin damage on the tails,"[3]; 8 Gy, 250 mg/kg, n=5, day 10",none of the five
same,mice with slight hemorrhagic telangiectasia on the front right feet,"[3]; 8 Gy, 250 mg/kg, n=5, day 10",Only one individual
same,HMGB1 release,[4],less HMGB1 released in a dose-dependent manner
same,adverse events,[5]; five clinical trials,no adverse events (AEs) that could be considered serious or severe
same,SAEs associated with EC-18,"[5]; pancreatic cancer patients, BID, total 1000 mg/day",no SAEs
same,accumulation,[5]; single- and multiple-dose 500 to 4000 mg,no accumulation with repeated-dosing was observed
same,Residual Concentration Relative to the Initial Dose After Reaction for 1 hr in Plasma,[6],>99%
same,Enzyme Activity CYP3A4,CYP3A4; 1 μM,3.44 ± 0.73 pmol/106 Cells/Min
same,Enzyme Activity CYP3A4,CYP3A4; 10 μM,3.11 ± 0.25 pmol/106 Cells/Min
same,Enzyme Activity CYP3A4,CYP3A4; 100 μM,3.61 ± 0.28 pmol/106 Cells/Min
same,potential to induce CYP3A4,CYP3A4; up to 100 μM,no potential to induce
same,"Cumulative Radioactive Concentration Relative to the Administered Dose, Exhaled Air",[7]; 0-24 hr,approximately 71%
same,"Cumulative Radioactive Concentration Relative to the Administered Dose, Feces",[7]; 0-24 hr,~3%
same,"Cumulative Radioactive Concentration Relative to the Administered Dose, Total",[7]; 0-24 hr,approximately 76%
same,"Cumulative Radioactive Concentration Relative to the Administered Dose, Urine",[7]; 0-24 hr,~2%
same,"Cumulative Radioactive Concentration Relative to the Administered Dose, Exhaled Air",[7]; 0-72 hr,~77%
same,"Cumulative Radioactive Concentration Relative to the Administered Dose, Feces",[7]; 0-72 hr,~4%
same,"Cumulative Radioactive Concentration Relative to the Administered Dose, Total",[7]; 0-72 hr,approximately 83%
same,"Cumulative Radioactive Concentration Relative to the Administered Dose, Urine",[7]; 0-72 hr,~2%
same,"Cumulative Radioactive Concentration Relative to the Administered Dose, Cadaver",[7]; 0-168 hr,approximately 10%
same,"Cumulative Radioactive Concentration Relative to the Administered Dose, Exhaled Air",[7]; 0-168 hr,~79%
same,"Cumulative Radioactive Concentration Relative to the Administered Dose, Feces",[7]; 0-168 hr,~4%
same,"Cumulative Radioactive Concentration Relative to the Administered Dose, Total",[7]; 0-168 hr,~96%
same,"Cumulative Radioactive Concentration Relative to the Administered Dose, Urine",[7]; 0-168 hr,~2%
same,immunotoxicity,SD rat,No immunotoxicity
